Results: US6989252B2, “Hydrogen production using hydrogenase-containing oxygenic photosynthetic organisms” (Midwest Research Institute, priority 1999, dated 2006)

Tested on: H2-producing C. reinhardtii cultures
Test: H2 gas collection from H2-producing sulfur-deprived cultures after inhibitor addition
Assay type: cell-based, Chlamydomonas reinhardtii
Conditions: inhibitor added to H2-producing sulfur-depleted cultures
Source text: Culture bottles (Schott or Roux type) were fitted with an #25 Ace thread and smaller side-ports for liquid sampling. A threaded glass stopper with capillaries for gas sampling was fitted with a Viton O-ring and used to seal the reactor. Threaded side-arm and gas sampling ports were sealed with rubber laminated Teflon septa. Teflon tubing (Aminco, HPLC), attached to one of the gas ports, was used to conduct gas evolved by the algae in the culture bottles to an upside-down graduated cylinder filled with H2O. The gas collection tubing was detached from the culture bottle during liquid and gas sampling to avoid disturbance of gas volume readings in the graduated cylinder.
We, thus, conclude that most of the reductants for H2 production are generated by residual water oxidation activity in sulfur-depleted C. reinhardtii cultures, but that an endogenous substrate may also contribute electrons for the process.

SMILES	rate of H2 gas collection relative to its initial value (% of initial value)	inhibition of H2 gas collection
CN(C)C(=O)Nc1ccc(Cl)c(Cl)c1 [DCMU]	about 20%	–
CC1=C(Br)C(=O)C(C(C)C)=C(Br)C1=O [DBMIB]	–	Total inhibition
